Like-named read-outs stand apart in the source and are kept apart here.
Experiment: Pharmacokinetic study: plasma concentration and plasma PK parameters after IV/PO dosing (LC-MS/MS, WinNonlin)
Assay type: in vivo, Male SD Rat
Conditions: male SD rat, plasma; for half-life: read-out: T1/2, Mean (converted)
Outline: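 Plasma levels after IV and oral dosing were measured by LC-MS/MS. Non-compartmental parameters came from concentration–time data: T1/2, C0, AUC, MRT, Cl and Vss for IV; T1/2, Cmax, Tmax, AUC, MRT and F% for PO. Values are given as mean and standard deviation.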

[1] = PO 10 mg/kg (equal to freebase), mean n=3, vehicle 20% HP-β-CD in water (POA, freebase) or water (salts)
[2] = male, Sprague-Dawley, rat, iv, 3 mg/kg, IV 3 mg/kg, individual rats, read-out: concentration in plasma
[3] = male, Sprague-Dawley, rat, iv, 3 mg/kg, IV 3 mg/kg, mean n=3, read-out: concentration in plasma, Mean
[4] = male, Sprague-Dawley, rat, po, 10 mg/kg, PO 10 mg/kg (equal to freebase), mean n=3, vehicle 20% HP-β-CD in water (POA, freebase) or water (salts), read-out: concentration in plasma, Mean
[5] = male, Sprague-Dawley, rat, po, 10 mg/kg, PO 10 mg/kg (equal to freebase), individual rats, vehicle 20% HP-β-CD in water (POA, freebase) or water (salts), read-out: concentration in plasma

Q: With `COc1cc2c(cc1OC)[C@@H]1Cc3ccc(O)c(OC)c3CN1CC2` [Compound (1), l-corydalmine] as the compound, how does the AUClast/D, Mean [1] read?
A: 78.8 kg·ng·h/mL/mg

Q: What about the “AUC—% Extrap_obs, Mean” value [1] of the same compound?
A: 19.8%

Q: And the AUC(0-inf) (male, SD, rat, iv, 3 mg/kg, IV 3 mg/kg, individual rats, read-out: AUCInf)?
A: 950 ng·h/mL

Q: And the AUC(0-t) (male, SD, rat, iv, 3 mg/kg, IV 3 mg/kg, individual rats, read-out: AUClast)?
A: 937 ng·h/mL

Q: What about the MRT inf (male, SD, rat, iv, 3 mg/kg, IV 3 mg/kg, individual rats, read-out: MRTInf_obs) of the same compound?
A: 1.09 h

Q: And the AUC(0-inf) (male, SD, rat, iv, 3 mg/kg, IV 3 mg/kg, mean n=3, read-out: AUCInf, Mean)?
A: 1020 ng·h/mL

Q: And the AUC(0-t) (male, SD, rat, iv, 3 mg/kg, IV 3 mg/kg, mean n=3, read-out: AUClast, Mean)?
A: 1000 ng·h/mL

Q: And the MRT inf (male, SD, rat, iv, 3 mg/kg, IV 3 mg/kg, mean n=3, read-out: MRTInf_obs, Mean)?
A: 1.23 h

Q: And the AUC(0-inf) (male, SD, rat, po, 10 mg/kg, PO 10 mg/kg (equal to freebase), individual rats, vehicle 20% HP-β-CD in water (POA, freebase) or water (salts), read-out: AUCInf)?
A: 1490 ng·h/mL

Q: What about the AUC(0-t) (male, SD, rat, po, 10 mg/kg, PO 10 mg/kg (equal to freebase), individual rats, vehicle 20% HP-β-CD in water (POA, freebase) or water (salts), read-out: AUClast) of the same compound?
A: 615 ng·h/mL

Q: And the Tmax (male, SD, rat, po, 10 mg/kg, PO 10 mg/kg (equal to freebase), individual rats, vehicle 20% HP-β-CD in water (POA, freebase) or water (salts), read-out: Tmax)?
A: 0.5 h

Q: And the AUC(0-inf) (male, SD, rat, po, 10 mg/kg, PO 10 mg/kg (equal to freebase), mean n=3, vehicle 20% HP-β-CD in water (POA, freebase) or water (salts), read-out: AUCInf, Mean)?
A: 1080 ng·h/mL

Q: What about the AUC(0-t) (male, SD, rat, po, 10 mg/kg, PO 10 mg/kg (equal to freebase), mean n=3, vehicle 20% HP-β-CD in water (POA, freebase) or water (salts), read-out: AUClast, Mean) of the same compound?
A: 788 ng·h/mL

Q: What about the Cmax (male, SD, rat, po, 10 mg/kg, PO 10 mg/kg (equal to freebase), mean n=3, vehicle 20% HP-β-CD in water (POA, freebase) or water (salts), read-out: Cmax, Mean) of the same compound?
A: 202 ng/mL

Q: And the MRT inf (male, SD, rat, po, 10 mg/kg, PO 10 mg/kg (equal to freebase), mean n=3, vehicle 20% HP-β-CD in water (POA, freebase) or water (salts), read-out: MRTInf_obs, Mean)?
A: 7.84 h

Q: What about the half-life (male, SD, rat, po, 10 mg/kg, PO 10 mg/kg (equal to freebase), mean n=3, vehicle 20% HP-β-CD in water (POA, freebase) or water (salts)) of the same compound?
A: 4.9 h

Q: And the Tmax (male, SD, rat, po, 10 mg/kg, PO 10 mg/kg (equal to freebase), mean n=3, vehicle 20% HP-β-CD in water (POA, freebase) or water (salts), read-out: Tmax, Mean)?
A: 0.417 h

Q: And the concentration at 0.083 h [2]?
A: 1420 ng/mL

Q: What about the concentration at 0.083 h [3] of the same compound?
A: 1480 ng/mL

Q: What about the concentration at 0.25 h [2] of the same compound?
A: 974 ng/mL

Q: And the concentration at 0.25 h [3]?
A: 976 ng/mL

Q: What about the concentration at 0.5 h [2] of the same compound?
A: 401 ng/mL

Q: What about the concentration at 0.5 h [3] of the same compound?
A: 478 ng/mL

Q: And the concentration at 1 h [2]?
A: 192 ng/mL

Q: And the concentration at 1 h [3]?
A: 191 ng/mL

Q: And the concentration at 2 h [2]?
A: 63.3 ng/mL

Q: And the concentration at 2 h [3]?
A: 68.4 ng/mL

Q: What about the concentration at 4 h [3] of the same compound?
A: 30.6 ng/mL

Q: What about the concentration at 8 h [3] of the same compound?
A: 6.38 ng/mL

Q: What about the concentration at 24 h [2] of the same compound?
A: 0.5 ng/mL

Q: And the C0 (male, Sprague-Dawley, rat, iv, 3 mg/kg, IV 3 mg/kg, individual rats, read-out: C0)?
A: 1710 ng/mL

Q: What about the half-life (male, Sprague-Dawley, rat, iv, 3 mg/kg, IV 3 mg/kg, mean n=3) of the same compound?
A: 2.73 h

Q: What about the concentration at 0.25 h [4] of the same compound?
A: 191 ng/mL

Q: What about the concentration at 0.5 h [4] of the same compound?
A: 197 ng/mL

Q: And the concentration at 1 h [5]?
A: 109 ng/mL

Q: What about the concentration at 1 h [4] of the same compound?
A: 125 ng/mL

Q: What about the concentration at 2 h [5] of the same compound?
A: 75.1 ng/mL

Q: What about the concentration at 2 h [4] of the same compound?
A: 66.7 ng/mL

Q: What about the concentration at 4 h [5] of the same compound?
A: 66.3 ng/mL

Q: And the concentration at 4 h [4]?
A: 51.2 ng/mL

Q: And the concentration at 8 h [5]?
A: 68.7 ng/mL

Q: What about the concentration at 8 h [4] of the same compound?
A: 49.9 ng/mL

Q: What about the concentration at 24 h (male, Sprague-Dawley, rat, po, 10 mg/kg, PO 10 mg/kg, mean (one rat BLOQ), vehicle 20% HP-β-CD in water (POA), read-out: concentration in plasma, Mean) of the same compound?
A: 0.574 ng/mL

Reference: US11236081B2, “Crystalline salts of corydalmine” (priority 2018, dated 2022)
